Consider 4 compounds from ChEMBL document CHEMBL1148519, “Antitumor activity of tetrahydroisoquinoline analogues 3-epi-jorumycin and 3-epi-renieramycin G” (2006).

One assay deals with A549. Nature of the assay: Antiproliferative activity against human A549 cell line. It is filed as functional.
In another assay the test system is HCT-116. Nature of the assay: Antiproliferative activity against human HCT116 cell line. Type of assay: functional.

Regarding `COC1=C(C)C(=O)C2=C(C1=O)[C@@H]1[C@H]3CC4=C(C(=O)C(OC)=C(C)C4=O)[C@H](COC(C)=O)N3[C@@H](O)[C@H](C2)N1C`, the GI50 (in general, the concentration that inhibits growth by half) was 4.64 µM in the assay with A549 and 0.61 µM in the assay on HCT-116.
Turning to `COC1=C(C)C(=O)C2=C(C1=O)[C@@H]1[C@@H]3CC4=C(C(=O)C(OC)=C(C)C4=O)[C@H](COC(C)=O)N3[C@@H](O)[C@H](C2)N1C`, the GI50 is 0.0192 µM with A549 and 0.0019 µM in the assay with HCT-116.
On to `C/C=C(/C)C(=O)OC[C@H]1C2=C(C[C@@H]3[C@H]4C5=C(C[C@@H](C(=O)N31)N4C)C(=O)C(C)=C(OC)C5=O)C(=O)C(C)=C(OC)C2=O` [3-EPI-RENIERAMYCIN G], for which the concentration for 50% growth inhibition (GI50) with A549 is 10.1 µM; with HCT-116 it was 1.4 µM.
In the same order, the values of `C/C=C(/C)C(=O)OC[C@H]1C2=C(C[C@H]3[C@H]4C5=C(C[C@@H](C(=O)N13)N4C)C(=O)C(C)=C(OC)C5=O)C(=O)C(C)=C(OC)C2=O` [(-)-RENIERAMYCIN G] are 12.9 µM and 3.87 µM.
